# Legend:
# Experiment in all cases: Kinase inhibitory activity profiling of RI-962@10 µM (406 kinases, Eurofins)
# Format in all cases: biochemical
# [1] = target: panel of human kinases (kinase named in endpoint) (Homo sapiens, UniProt P57059); settings: 10 µM; read-out: Activity (%), SIK(h)
# Procedure, shortened: (§1)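 Radiometric filter-binding kinase assays: enzyme preincubated 15 min with compound in 8 mM MOPS pH 7.0, 0.2 mM EDTA, 250 μM peptide substrate, 10 mM magnesium acetate, 10 μM [γ-33P]-ATP. Reaction started with Mg/ATP, run 40 min at room temperature, stopped with phosphoric acid; 33P incorporation read by scintillation counting. Other kinases by similar protocols.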
# [2] = target: panel of human kinases (kinase named in endpoint) (Homo sapiens, UniProt Q8TDX7); settings: 10 µM; read-out: Activity (%), NEK7(h)
# Procedure, shortened: as §1
# [3] = target: panel of human kinases (kinase named in endpoint) (Homo sapiens, UniProt P37173); settings: 10 µM; read-out: Activity (%), TGFBR2(h)
# Procedure, shortened: as §1
# [4] = target: panel of human kinases (kinase named in endpoint) (Homo sapiens, UniProt P50613); settings: 10 µM; read-out: Activity (%), CDK7/cyclinH/MAT1(h)
# panel of human kinases (kinase named in endpoint) (Homo sapiens, UniProt P50613), sequence (P50613 whole entry): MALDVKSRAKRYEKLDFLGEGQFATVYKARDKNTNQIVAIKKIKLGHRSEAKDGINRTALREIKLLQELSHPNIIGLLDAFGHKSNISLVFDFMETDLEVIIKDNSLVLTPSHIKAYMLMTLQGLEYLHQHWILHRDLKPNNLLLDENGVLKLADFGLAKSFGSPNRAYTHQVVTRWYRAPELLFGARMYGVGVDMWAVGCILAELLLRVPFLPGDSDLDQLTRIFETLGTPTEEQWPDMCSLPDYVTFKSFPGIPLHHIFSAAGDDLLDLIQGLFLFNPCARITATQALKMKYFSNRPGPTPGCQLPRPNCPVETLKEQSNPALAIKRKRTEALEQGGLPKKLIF
# Procedure, shortened: as §1
# [5] = target: panel of human kinases (kinase named in endpoint) (Homo sapiens, UniProt Q96BR1); settings: 10 µM; read-out: Activity (%), SGK3(h)
# panel of human kinases (kinase named in endpoint) (Homo sapiens, UniProt Q96BR1), sequence (Q96BR1 whole entry): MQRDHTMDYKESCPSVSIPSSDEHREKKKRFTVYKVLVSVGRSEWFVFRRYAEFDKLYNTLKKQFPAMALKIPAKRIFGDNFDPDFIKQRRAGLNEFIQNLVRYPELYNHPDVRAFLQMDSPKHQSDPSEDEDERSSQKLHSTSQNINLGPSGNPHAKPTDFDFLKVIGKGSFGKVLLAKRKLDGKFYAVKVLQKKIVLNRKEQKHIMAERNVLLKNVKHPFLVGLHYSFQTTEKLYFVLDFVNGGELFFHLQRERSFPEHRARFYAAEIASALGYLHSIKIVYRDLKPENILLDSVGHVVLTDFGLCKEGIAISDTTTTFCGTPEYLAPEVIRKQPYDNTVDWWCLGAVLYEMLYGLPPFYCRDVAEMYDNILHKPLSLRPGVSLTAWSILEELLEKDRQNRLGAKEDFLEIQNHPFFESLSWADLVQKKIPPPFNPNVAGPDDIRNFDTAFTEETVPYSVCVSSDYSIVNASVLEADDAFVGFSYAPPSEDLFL
# Procedure, shortened: as §1
# [6] = target: panel of human kinases (kinase named in endpoint) (Homo sapiens, UniProt P49137); settings: 10 µM; read-out: Activity (%), MAPKAP-K2(h)
# panel of human kinases (kinase named in endpoint) (Homo sapiens, UniProt P49137), sequence (P49137 whole entry): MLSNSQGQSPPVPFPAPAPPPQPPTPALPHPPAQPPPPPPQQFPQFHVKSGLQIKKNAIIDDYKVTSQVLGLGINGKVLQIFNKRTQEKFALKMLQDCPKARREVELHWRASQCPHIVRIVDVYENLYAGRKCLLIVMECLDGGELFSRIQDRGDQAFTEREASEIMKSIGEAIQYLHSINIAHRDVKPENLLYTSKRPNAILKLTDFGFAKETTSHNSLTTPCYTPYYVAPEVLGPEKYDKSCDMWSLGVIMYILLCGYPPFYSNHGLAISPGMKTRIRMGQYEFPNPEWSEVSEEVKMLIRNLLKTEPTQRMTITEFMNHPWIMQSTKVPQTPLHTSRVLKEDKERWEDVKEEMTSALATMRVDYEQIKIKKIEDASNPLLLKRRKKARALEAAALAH
# Procedure, shortened: as §1
# [7] = target: panel of human kinases (kinase named in endpoint) (Homo sapiens, UniProt O14965); settings: 10 µM; read-out: Activity (%), Aurora-A(h)
# Procedure, shortened: as §1
# [8] = target: panel of human kinases (kinase named in endpoint) (Homo sapiens, UniProt P25098); settings: 10 µM; read-out: Activity (%), GRK2(h)
# panel of human kinases (kinase named in endpoint) (Homo sapiens, UniProt P25098), sequence (P25098 whole entry): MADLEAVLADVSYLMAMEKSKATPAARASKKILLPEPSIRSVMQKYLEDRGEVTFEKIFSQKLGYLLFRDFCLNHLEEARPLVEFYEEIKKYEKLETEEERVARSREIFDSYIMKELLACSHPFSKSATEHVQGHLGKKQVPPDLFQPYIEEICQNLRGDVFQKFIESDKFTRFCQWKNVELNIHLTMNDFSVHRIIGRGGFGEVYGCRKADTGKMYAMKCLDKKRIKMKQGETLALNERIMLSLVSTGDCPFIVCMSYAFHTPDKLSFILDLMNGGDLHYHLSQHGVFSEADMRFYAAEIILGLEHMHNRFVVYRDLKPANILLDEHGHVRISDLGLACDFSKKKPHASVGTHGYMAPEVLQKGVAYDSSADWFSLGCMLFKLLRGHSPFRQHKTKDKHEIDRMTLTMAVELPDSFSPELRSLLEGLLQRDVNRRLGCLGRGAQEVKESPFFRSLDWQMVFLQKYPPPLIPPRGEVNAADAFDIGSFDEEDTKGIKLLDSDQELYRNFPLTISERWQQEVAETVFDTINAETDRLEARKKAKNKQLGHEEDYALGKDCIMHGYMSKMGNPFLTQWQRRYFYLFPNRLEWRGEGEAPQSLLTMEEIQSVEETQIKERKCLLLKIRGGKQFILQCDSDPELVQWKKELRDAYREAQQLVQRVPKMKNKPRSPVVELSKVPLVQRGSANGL
# Procedure, shortened: as §1
# [9] = target: panel of human kinases (kinase named in endpoint) (Homo sapiens, UniProt Q8IY84); settings: 10 µM; read-out: Activity (%), NIM1(h)
# Procedure, shortened: as §1
# [10] = target: panel of human kinases (kinase named in endpoint) (Homo sapiens, UniProt Q05655); settings: 10 µM; read-out: Activity (%), PKCδ(h)
# Procedure, shortened: as §1
# [11] = target: panel of human kinases (kinase named in endpoint) (Homo sapiens, UniProt Q06187); settings: 10 µM; read-out: Activity (%), BTK(h)
# panel of human kinases (kinase named in endpoint) (Homo sapiens, UniProt Q06187), sequence (Q06187 whole entry): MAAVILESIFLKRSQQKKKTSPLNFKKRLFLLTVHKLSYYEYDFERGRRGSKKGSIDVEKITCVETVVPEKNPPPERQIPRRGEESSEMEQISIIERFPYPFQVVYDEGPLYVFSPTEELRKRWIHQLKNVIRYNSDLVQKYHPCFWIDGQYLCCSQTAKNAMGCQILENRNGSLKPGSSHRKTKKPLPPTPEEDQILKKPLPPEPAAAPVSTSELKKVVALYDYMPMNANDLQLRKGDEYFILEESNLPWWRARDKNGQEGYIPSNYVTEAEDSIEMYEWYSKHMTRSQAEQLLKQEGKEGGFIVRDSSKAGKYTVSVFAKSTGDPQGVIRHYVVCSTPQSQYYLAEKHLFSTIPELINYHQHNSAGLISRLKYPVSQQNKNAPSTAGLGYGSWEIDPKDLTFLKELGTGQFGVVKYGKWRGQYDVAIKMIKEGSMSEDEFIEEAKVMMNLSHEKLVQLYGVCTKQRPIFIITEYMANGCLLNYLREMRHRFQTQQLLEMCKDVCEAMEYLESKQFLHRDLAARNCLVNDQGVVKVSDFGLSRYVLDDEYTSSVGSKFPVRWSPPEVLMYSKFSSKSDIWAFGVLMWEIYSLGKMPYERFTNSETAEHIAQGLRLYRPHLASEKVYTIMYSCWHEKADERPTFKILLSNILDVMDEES
# Procedure, shortened: as §1
# [12] = target: panel of human kinases (kinase named in endpoint) (Homo sapiens, UniProt Q5VT25); settings: 10 µM; read-out: Activity (%), MRCKα(h)
# Procedure, shortened: as §1
# [13] = target: panel of human kinases (kinase named in endpoint) (Homo sapiens, UniProt P08581, Y1230H); settings: 10 µM; read-out: Activity (%), Met(Y1248H)(h)
# Procedure, shortened: as §1
# [14] = target: panel of human kinases (kinase named in endpoint) (Homo sapiens, UniProt P00519, T315I); settings: 10 µM; read-out: Activity (%), Abl(T315I)(h)
# Procedure, shortened: as §1
# [15] = target: panel of human kinases (kinase named in endpoint) (Homo sapiens, UniProt P00519, H396P); settings: 10 µM; read-out: Activity (%), Abl (H396P) (h)
# Procedure, shortened: as §1
# [16] = target: panel of human kinases (kinase named in endpoint) (Homo sapiens, UniProt Q8IYT8); settings: 10 µM; read-out: Activity (%), ULK2(h)
# Procedure, shortened: as §1
# [17] = target: panel of human kinases (kinase named in endpoint) (Homo sapiens, UniProt Q15119); settings: 10 µM; read-out: Activity (%), PDHK2(h)
# Procedure, shortened: as §1
# [18] = target: panel of human kinases (kinase named in endpoint) (Homo sapiens, UniProt P31751); settings: 10 µM; read-out: Activity (%), PKBβ(h)
# panel of human kinases (kinase named in endpoint) (Homo sapiens, UniProt P31751), sequence (P31751 whole entry): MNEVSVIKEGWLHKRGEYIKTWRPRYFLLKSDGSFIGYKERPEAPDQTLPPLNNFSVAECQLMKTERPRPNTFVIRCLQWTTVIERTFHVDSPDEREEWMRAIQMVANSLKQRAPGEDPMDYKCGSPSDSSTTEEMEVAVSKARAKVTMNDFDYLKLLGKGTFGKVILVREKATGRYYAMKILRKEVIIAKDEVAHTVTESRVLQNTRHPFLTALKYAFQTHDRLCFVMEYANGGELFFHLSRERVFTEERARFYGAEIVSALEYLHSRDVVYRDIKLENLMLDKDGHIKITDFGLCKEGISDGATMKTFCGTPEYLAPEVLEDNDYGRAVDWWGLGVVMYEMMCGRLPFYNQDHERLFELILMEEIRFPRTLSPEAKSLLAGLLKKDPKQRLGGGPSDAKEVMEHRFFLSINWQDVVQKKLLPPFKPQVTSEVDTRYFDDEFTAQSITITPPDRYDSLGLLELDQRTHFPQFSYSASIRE
# Procedure, shortened: as §1
# [19] = target: panel of human kinases (kinase named in endpoint) (Homo sapiens, UniProt Q05513); settings: 10 µM; read-out: Activity (%), PKCζ(h)
# Procedure, shortened: as §1
# [20] = target: panel of human kinases (kinase named in endpoint) (Homo sapiens, UniProt P36888, D835Y); settings: 10 µM; read-out: Activity (%), Flt3(D835Y)(h)
# Procedure, shortened: as §1
# [21] = target: panel of human kinases (kinase named in endpoint) (Homo sapiens, UniProt Q9P1W9); settings: 10 µM; read-out: Activity (%), Pim-2(h)
# panel of human kinases (kinase named in endpoint) (Homo sapiens, UniProt Q9P1W9), sequence (Q9P1W9 whole entry): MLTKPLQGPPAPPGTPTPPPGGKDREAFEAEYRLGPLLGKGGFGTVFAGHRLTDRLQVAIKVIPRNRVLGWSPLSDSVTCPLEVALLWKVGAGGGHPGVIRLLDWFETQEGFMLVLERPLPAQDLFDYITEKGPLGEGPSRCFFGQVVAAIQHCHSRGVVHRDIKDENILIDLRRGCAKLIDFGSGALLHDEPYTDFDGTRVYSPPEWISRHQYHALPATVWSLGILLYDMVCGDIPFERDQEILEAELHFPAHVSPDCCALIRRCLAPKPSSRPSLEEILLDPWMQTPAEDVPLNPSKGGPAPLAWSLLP
# Procedure, shortened: as §1
# [22] = target: panel of human kinases (kinase named in endpoint) (Homo sapiens, UniProt Q96GD4); settings: 10 µM; read-out: Activity (%), Aurora-B(h)
# panel of human kinases (kinase named in endpoint) (Homo sapiens, UniProt Q96GD4), sequence (Q96GD4 whole entry): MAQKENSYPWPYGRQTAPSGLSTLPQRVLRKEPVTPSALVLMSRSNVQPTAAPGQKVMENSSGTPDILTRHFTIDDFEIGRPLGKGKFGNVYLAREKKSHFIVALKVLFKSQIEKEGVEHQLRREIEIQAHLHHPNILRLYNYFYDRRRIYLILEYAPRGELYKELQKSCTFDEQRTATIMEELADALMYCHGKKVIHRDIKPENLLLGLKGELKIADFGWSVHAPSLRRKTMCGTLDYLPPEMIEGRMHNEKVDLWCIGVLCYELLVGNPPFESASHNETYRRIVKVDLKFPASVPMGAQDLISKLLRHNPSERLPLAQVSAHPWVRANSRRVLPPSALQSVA
# Procedure, shortened: as §1
# [23] = target: panel of human kinases (kinase named in endpoint) (Homo sapiens, UniProt P51817); settings: 10 µM; read-out: Activity (%), PrKX(h)
# panel of human kinases (kinase named in endpoint) (Homo sapiens, UniProt P51817), sequence (P51817 whole entry): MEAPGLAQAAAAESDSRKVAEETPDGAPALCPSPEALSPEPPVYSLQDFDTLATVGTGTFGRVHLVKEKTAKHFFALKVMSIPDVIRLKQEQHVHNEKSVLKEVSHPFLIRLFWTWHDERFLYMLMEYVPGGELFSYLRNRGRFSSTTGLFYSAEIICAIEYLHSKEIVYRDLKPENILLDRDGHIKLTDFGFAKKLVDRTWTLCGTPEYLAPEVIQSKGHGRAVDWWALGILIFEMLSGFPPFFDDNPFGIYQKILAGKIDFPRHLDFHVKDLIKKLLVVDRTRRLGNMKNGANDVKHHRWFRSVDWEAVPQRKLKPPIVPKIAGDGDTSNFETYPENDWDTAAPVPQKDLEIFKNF
# Procedure, shortened: as §1
# [24] = target: panel of human kinases (kinase named in endpoint) (Homo sapiens, UniProt P46734); settings: 10 µM; read-out: Activity (%), MKK3(h)
# panel of human kinases (kinase named in endpoint) (Homo sapiens, UniProt P46734), sequence (P46734 whole entry): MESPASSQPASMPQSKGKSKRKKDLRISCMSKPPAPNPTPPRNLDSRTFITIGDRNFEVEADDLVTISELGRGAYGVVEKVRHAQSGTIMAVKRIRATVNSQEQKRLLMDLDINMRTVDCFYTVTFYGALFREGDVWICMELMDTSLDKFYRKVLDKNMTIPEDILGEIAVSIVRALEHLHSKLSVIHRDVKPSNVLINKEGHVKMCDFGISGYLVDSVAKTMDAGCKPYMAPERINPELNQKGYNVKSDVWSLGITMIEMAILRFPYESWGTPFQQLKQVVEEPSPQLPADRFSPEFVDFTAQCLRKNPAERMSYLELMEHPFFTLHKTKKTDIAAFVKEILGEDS
# Procedure, shortened: as §1
# [25] = target: panel of human kinases (kinase named in endpoint) (Homo sapiens, UniProt Q8TDR2); settings: 10 µM; read-out: Activity (%), CLIK1(h)
# panel of human kinases (kinase named in endpoint) (Homo sapiens, UniProt Q8TDR2), sequence (Q8TDR2 whole entry): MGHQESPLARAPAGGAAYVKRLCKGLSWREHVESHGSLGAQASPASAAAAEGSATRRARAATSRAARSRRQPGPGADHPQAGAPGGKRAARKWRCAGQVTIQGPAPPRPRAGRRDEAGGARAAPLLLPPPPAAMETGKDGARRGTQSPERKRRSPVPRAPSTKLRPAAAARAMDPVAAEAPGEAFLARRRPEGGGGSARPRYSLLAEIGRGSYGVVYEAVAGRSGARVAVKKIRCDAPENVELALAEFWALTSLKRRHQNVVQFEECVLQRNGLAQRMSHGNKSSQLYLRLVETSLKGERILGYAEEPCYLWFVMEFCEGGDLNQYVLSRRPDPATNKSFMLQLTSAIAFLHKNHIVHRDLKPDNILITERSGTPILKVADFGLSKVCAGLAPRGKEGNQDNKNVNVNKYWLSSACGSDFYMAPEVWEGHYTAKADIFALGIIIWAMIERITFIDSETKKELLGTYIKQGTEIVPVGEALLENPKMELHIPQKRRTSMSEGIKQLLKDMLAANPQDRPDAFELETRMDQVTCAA
# Procedure, shortened: as §1
smiles,measurement,setting,value
CC(C)C(=O)Nc1nc2cc(-c3ccc4c(c3)c(C(=O)NC(C)c3ccccc3)cn4C)ccn2n1 (stereo not shown) [RI-962],activity at 10 µM,[1],137%
same,activity at 10 µM,[2],85%
same,activity at 10 µM,[3],94%
same,activity at 10 µM,[4],93%
same,activity at 10 µM,[5],132%
same,activity at 10 µM,[6],97%
same,activity at 10 µM,[7],95%
same,activity at 10 µM,[8],86%
same,activity at 10 µM,[9],88%
same,activity at 10 µM,[10],90%
same,activity at 10 µM,[11],92%
same,activity at 10 µM,[12],94%
same,activity at 10 µM,[13],99%
same,activity at 10 µM,[14],132%
same,activity at 10 µM,[15],110%
same,activity at 10 µM,[16],89%
same,activity at 10 µM,[17],96%
same,activity at 10 µM,[18],92%
same,activity at 10 µM,[19],119%
same,activity at 10 µM,[20],88%
same,activity at 10 µM,[21],97%
same,activity at 10 µM,[22],119%
same,activity at 10 µM,[23],126%
same,activity at 10 µM,[24],103%
same,activity at 10 µM,[25],132%

# Source: publication PMC9653409, “Generative deep learning enables the discovery of a potent and selective RIPK1 inhibitor” (Nature Communications, 2022)
